Patent US12721912B2, “Radiopharmaceutical compositions for actinium in targeted radionuclide therapy” (Curium US LLC, priority 2024, dated 2026)
Where two headings read alike, the source gives them in different places.

Experiments:
[1] = Process A / process B injection stored at 5, 22.5, 32.5 and 40° C.: radiochemical purity by radio-TLC (Tables 21, 22); format: physicochemical; details: 5-40° C.
Method: The radio-TLC method was performed as follows: 5 μl or 10 μl of the sample was spotted onto the application line (1.5 cm from the lower edge of the plate) of a TLC plate (Merck Silica Gel 60 F254, plate size 20×100 mm). The TLC plate was developed in a TLC chamber using 0.1 M citric acid (adjusted to pH 5) as mobile phase. The plate was removed from the chamber when the eluent front reached 7.5 cm distance from the application line. The plates were analyzed with a radio-TLC scanner after secular equilibrium between ^225Ac and daughter nuclides was reached (minimum of 7 hours). […]
In process B, radiolabeling is performed in 11.3 mg/ml sodium ascorbate solution and the 0.04 M HCl is neutralized by adding 1 ml of 0.04 M NaOH solution into the reactor prior to labeling. The final formulation in process B is prepared to an intended radioactivity concentration by diluting with 11.3 mg/ml sodium ascorbate solution.
To compare the processes, ^225Ac-PSMA I&T injection was prepared at around 1 mCi scale using both processes. […] Radioactivity concentration was 468 kBq/ml in process A and 969 kBq/ml in process B. […]
The purity of ^225Ac-PSMA I&T samples was analyzed by the radio-TLC and HPLC fraction collection methods described previously at different time points.

[2] = Metal scavenger (DTPA) formulations: radiochemical stability by radio-TLC at 40° C. (Table 17); format: physicochemical; details: 11.3 mg/ml sodium ascorbate formulation, 0.0005-0.01 mg/ml DTPA
Method: The mixture was then divided into four samples which were diluted with suitable amount WFI and DTPA solution to achieve concentrations of 0.0005 mg/ml, 0.001 mg/ml, 0.005 mg/ml, and 0.01 mg/ml of DTPA in the final formulations. […] The samples were kept at 40° C.

patients with mCRPC [3] = details: cited from earlier work
[4] = cited from earlier work
patients with mCRPC [5] = details: cited from earlier work; remark: listed apart in the source
[6] = subgroup of 11 patients with prior ^177Lu-PSMA treatment
[7] = subgroup with prior ^177Lu-PSMA radioligand therapy

## (25)-2-[[(1S)-1-carboxylato-5-[[8-[[(5R)-5-carboxylato-5-[[(2R)-2-[[(2R)-2-[[(4R)-4-carboxylato-4-[4,7,10-tris(carboxylatomethyl)-1,4,7,10-tetrazacyclododec-1-yl]butanoyl]amino]-3-(4-hydroxy-3-iodophenyl)propanoyl]amino]-3-phenylpropanoyl]amino]pentyl]amino]-8-oxooctanoyl]amino]pentyl]carbamoylamino]pentanedioate; hydron; actinium-225(3+) [^225Ac-PSMA I&T]
[1]
  Radiochemical purity by the radio-TLC method after 120-hour time point: greater than 98%
[2]
  Effect of DTPA on the stability: significantly reduce the stability
Patients with mCRPC [3]; 1 patient, 8 MBq per cycle
  Biochemical response PSA50: 100%
  Major toxicity: xerostomia
Patients with mCRPC [3]; already preexisting after 10 cycles of RLT
  Main TAT-related side effect: grade 2 xerostomia
Patients with mCRPC [3]; human, in vivo
  Hematological side effects: No TAT-related grade 3/4 hematological side effects
Patients with mCRPC [3]; two cycles after failure of ^177Lu-PSMA-617
  Response: encouraging response
[4]; 8.1 MBq, SPECT at 24 h p. i.
  Absorbed dose, left kidney: 0.18 SV(RBE=5)MBq
  Absorbed dose, right kidney: 0.17 SV(RBE=5)MBq
[4]; human, in vivo
  Absorbed dose, small lesion in the right hip: 0.26 SV(RBE=5)MBq
Patients with mCRPC [5]; 2 of them with grade 2 anemia at baseline
  Grade 3 anemia after TAT: 3 of the 14 patients
Patients with mCRPC [5]; 14 patients, 7.8 MBq per cycle
  Biochemical response PSA50: 50%
Patients with mCRPC [5]; 14 patients, FIG. 13
  Grade 1 nephrotoxicity: one
  Hematologic toxicity: mild
Patients with mCRPC [5]; 14 patients
  Acute toxicity during hospitalization: No acute toxicity
  Best PSA response after TAT (PSA decline ≥50%): 7 patients
  Grade 3 leukopenia: 1 patient
  Major toxicity: xerostomia
  Newly diagnosed grade 1 or 2 xerostomia after TAT: 5 patients
  No PSA decline at any time: Three
  No xerostomia at all: One
  PSA decline of any amount: 11 patients
  Preexisting xerostomia after ^177Lu-PSMA, no worsening after TAT: Eight
Patients with mCRPC [5]; [6]
  Any PSA decline: 8 patients
  PSA decline of at least 50%: 5 patients
Patients with mCRPC [5]; [7]
  Any PSA decline: 73%
  PSA decline ≥50%: 45%
